55 compounds from ChEMBL document CHEMBL5365420, “Kinetics, Thermodynamics, and Structural Effects of Quinoline-2-Carboxylates, Zinc-Binding Inhibitors of New Delhi Metallo-β-lactamase-1 Re-sensitizing Multidrug-Resistant Bacteria for Carbapenems” (J Med Chem, 2023) can be followed below.

The target in assay [1] is Metallo-beta-lactamase type 2 (Bacteria, UniProt C7C422).
Description: Inhibition of C-terminal 6His-tagged full length NDM-1 (unknown origin) expressed in Escherichia coli BL21-DE3 using nitrocefin as substrate incubated for 15 mins followed by substrate addition by absorbance based microplate reader analysis
The target in assay [2] is T1, 72 kDa type IV collagenase (Homo sapiens, UniProt P08253). Briefly: Inhibition of human recombinant MMP-2 CD at 10 uM using OMNIMMP as substrate incubated for 30 mins by fluorescence based analysis relative to control.
Target sequence in this assay (P08253 110-660 limits assumed): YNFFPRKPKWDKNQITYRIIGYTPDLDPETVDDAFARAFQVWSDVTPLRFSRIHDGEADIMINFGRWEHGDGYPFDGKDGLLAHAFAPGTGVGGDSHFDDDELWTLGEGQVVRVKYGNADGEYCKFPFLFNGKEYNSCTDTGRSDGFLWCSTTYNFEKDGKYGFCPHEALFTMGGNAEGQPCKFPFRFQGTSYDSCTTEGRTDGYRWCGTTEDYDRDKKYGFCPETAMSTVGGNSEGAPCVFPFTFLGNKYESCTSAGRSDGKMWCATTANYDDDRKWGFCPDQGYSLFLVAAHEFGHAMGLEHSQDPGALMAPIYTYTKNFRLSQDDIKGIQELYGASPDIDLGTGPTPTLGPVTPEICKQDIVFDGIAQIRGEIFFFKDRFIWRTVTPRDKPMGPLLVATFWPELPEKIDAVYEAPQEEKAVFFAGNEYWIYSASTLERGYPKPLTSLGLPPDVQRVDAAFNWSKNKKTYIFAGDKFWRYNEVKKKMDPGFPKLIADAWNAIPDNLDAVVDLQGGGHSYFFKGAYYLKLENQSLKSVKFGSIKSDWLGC
Assay [3] addresses Histone deacetylase 1 (Homo sapiens) (UniProt Q13547). Briefly: Inhibition of C-terminal 6His/FLAG-tagged human recombinant full-length HDAC1 (1 to 482(end) residues) at 10 uM using Boc-Lys-(Ac)-AMC as substrate incubated for 10 mins followed by substrate addition measured after 1 hr by fluorescence based analysis relative to control. The settings on record: time 70.0 min.
For assay [4], the target named is Carbonic anhydrase 2 (Homo sapiens) (UniProt P00918). The assay is described as follows: Inhibition of human CA2 at 10 uM using pNPA as substrate preincubated for 15 mins followed by substrate by absorbance based analysis relative to control.
Assay [5] in a line: Inhibition of IMP-1 (unknown origin) expressed in Escherichia coli BL21-DE3 incubated for 15 mins by absorbance based microplate reader analysis. Further details: species or system Bacteria.
A short description of assay [6]: Inhibition of VIM-2 (unknown origin) incubated for 15 mins by absorbance based microplate reader analysis. Further details: species or system Bacteria.
A short description of assay [7]: Inhibition of GIM1 (unknown origin) incubated for 15 mins by absorbance based microplate reader analysis. Further details: species or system Bacteria.
The nature of assay [8]: Selectivity ratio of Ki for human recombinant MMP-2 CD to Ki for C-terminal 6His-tagged full length NDM-1 (unknown origin).
The target of assay [9] is T1, 72 kDa type IV collagenase. The assay is described as follows: Binding affinity to human recombinant MMP-2 CD assessed as inhibition constant using OMNIMMP as substrate incubated for 30 mins by fluorescence based analysis.
Target sequence in this assay (P08253 whole entry): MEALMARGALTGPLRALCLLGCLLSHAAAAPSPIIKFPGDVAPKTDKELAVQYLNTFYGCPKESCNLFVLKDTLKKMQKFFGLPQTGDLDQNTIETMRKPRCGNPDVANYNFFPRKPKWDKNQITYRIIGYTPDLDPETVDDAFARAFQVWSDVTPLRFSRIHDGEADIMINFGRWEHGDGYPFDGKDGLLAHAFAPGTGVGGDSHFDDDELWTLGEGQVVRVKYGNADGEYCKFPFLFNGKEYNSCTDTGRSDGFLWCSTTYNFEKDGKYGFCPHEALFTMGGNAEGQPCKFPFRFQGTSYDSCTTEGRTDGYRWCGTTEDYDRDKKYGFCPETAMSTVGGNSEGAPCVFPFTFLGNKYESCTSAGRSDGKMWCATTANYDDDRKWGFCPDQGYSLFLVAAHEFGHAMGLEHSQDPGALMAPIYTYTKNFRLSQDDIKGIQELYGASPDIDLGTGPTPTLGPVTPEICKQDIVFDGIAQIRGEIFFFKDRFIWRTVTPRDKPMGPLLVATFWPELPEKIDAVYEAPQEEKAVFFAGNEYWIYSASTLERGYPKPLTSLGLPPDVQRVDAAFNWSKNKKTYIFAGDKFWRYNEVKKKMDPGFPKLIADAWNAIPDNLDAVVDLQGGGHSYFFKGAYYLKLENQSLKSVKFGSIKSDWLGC

Metallo-beta-lactamase type 2, sequence (C7C422 whole entry): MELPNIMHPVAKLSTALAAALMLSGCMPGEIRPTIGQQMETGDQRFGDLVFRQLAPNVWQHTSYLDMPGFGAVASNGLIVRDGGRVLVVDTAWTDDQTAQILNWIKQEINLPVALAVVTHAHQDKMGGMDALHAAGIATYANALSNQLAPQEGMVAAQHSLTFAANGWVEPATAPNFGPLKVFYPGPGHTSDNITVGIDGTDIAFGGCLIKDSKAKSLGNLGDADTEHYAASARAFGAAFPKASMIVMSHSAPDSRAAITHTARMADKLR
Histone deacetylase 1 (Homo sapiens), sequence (Q13547 whole entry): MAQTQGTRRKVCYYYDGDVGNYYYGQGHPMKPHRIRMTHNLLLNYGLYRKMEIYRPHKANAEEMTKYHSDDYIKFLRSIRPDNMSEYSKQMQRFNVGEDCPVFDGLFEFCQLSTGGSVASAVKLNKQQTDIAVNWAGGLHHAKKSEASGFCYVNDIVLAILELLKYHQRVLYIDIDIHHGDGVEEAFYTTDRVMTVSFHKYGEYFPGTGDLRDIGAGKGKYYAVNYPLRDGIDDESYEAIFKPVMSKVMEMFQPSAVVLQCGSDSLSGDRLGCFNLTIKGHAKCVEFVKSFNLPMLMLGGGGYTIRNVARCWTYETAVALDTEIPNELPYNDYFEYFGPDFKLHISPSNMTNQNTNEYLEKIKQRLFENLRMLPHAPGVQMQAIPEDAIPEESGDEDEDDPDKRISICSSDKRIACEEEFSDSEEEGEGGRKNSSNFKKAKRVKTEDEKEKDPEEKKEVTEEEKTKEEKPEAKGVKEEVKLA

Regarding `O=C(O)c1ccc2cccc(NS(=O)(=O)c3ccc(Cl)cc3)c2n1`, in assay [1], half-maximal inhibition (IC50) required 0.45 µM.

Turning to `O=C(O)c1ccc2c(Br)cc(Br)c(O)c2n1`, the concentration for half-maximal inhibition (IC50) – broadly, the concentration at which inhibition is half-maximal – in [1] is 0.46 µM. This IC50 and that of the compound before are within 1.5-fold of each other.

`O=C(NOCc1ccccc1)c1ccc2c(Br)cc(Br)c(O)c2n1` displayed a half-inhibitory concentration (IC50) in assay [1] of 1.47 µM.

Turning to `Cc1ccc(S(=O)(=O)Nc2cccc3ccc(C(=O)O)nc23)cc1`, in assay [1], it took 1.41 µM to reach half-maximal inhibition (IC50). The IC50 values of the last two compounds are within 1.5-fold of each other.

For the compound `CS(=O)(=O)Nc1ccc(I)c2ccc(C(=O)O)nc12`, the inhibition – broadly, the share of the control response that was lost under treatment – in assay [2] is 94%; in assay [3], below 5%; in assay [4], below 5%. The compound also gave an IC50 in [1] of 1.4 µM.

Turning to `O=C(O)c1ccc2cccc(NS(=O)(=O)c3ccccc3Cl)c2n1`, the 50% inhibitory concentration (IC50) in [1] was 0.44 µM.

`CS(=O)(=O)Nc1c(Cl)cc(Cl)c2ccc(C(=O)O)nc12` came in with an IC50 in assay [1] above 1000 µM.

`O=C(O)c1ccc2cccc(NS(=O)(=O)Cc3ccccc3)c2n1`: the concentration for half-maximal inhibition (IC50) in [1] turned out to be 1.28 µM.

Regarding `COC(=O)c1ccc2cccc(NS(=O)(=O)c3cccc(F)c3)c2n1`, the IC50 in assay [1] stood at 1.7 µM. This IC50 and that of the compound before are within 1.5-fold of each other.

For `CONC(=O)c1ccc2cccc(O)c2n1`, in assay [1], the IC50 was determined as 13.7 µM.

In turn, `O=C(O)c1ccc2cccc(NS(=O)(=O)c3cccc(Cl)c3)c2n1` registered an IC50 in [1] of 0.5 µM. Compared with the last compound, the IC50 is about 27-fold lower.

As for `O=C(O)c1ccc2cccc(NS(=O)(=O)c3c(Cl)cc(Cl)cc3Cl)c2n1`, in assay [1], the IC50 was 0.44 µM.

Regarding `O=C(O)c1ccc2cccc(NS(=O)(=O)c3ccc(C(F)(F)F)cc3[N+](=O)[O-])c2n1`, the 50% inhibitory concentration (IC50) worked out at 0.24 µM in assay [5], 0.38 µM in assay [6], 1.5 µM in [7] and 0.37 µM in assay [1]. Moreover, the inhibition in [2] was above 90%; in assay [3], below 5%; in assay [4], below 5%. In addition, the Ratio Ki in [8] is 3. Besides, in assay [9], the inhibition constant Ki (as a rule, the equilibrium dissociation constant of an inhibitor or competing ligand from its target) turned out to be 0.6 µM.

Regarding `O=C(O)c1cc(Cl)c2cccc(NS(=O)(=O)c3ccccn3)c2n1`, the midpoint of inhibition in assay [1], the IC50, lay at 0.28 µM.

Compound `Cc1ccc2cccc(NS(=O)(=O)c3cccc(F)c3)c2n1` had an IC50 in assay [1] of 1.4 µM. Compared with the last compound, the IC50 is about 5-fold higher.

`CONC(=O)c1ccccn1` gave an IC50 in [1] of 1240 µM.

For the compound `O=C(O)c1ccc2cccc(O)c2n1`, the IC50 turned out to be 10.3 µM in [5], 0.61 µM in assay [6], 7.38 µM in assay [7] and 9.1 µM in assay [1]. Further, the inhibition in [2], in assay [3] and in [4] was below 5% in each case.

`O=C(O)c1ccc2c(I)cc(I)c(NS(=O)(=O)c3ccccc3)c2n1` gave a half-inhibitory concentration (IC50) in assay [1] above 1000 µM.

Regarding `O=C(O)c1ccc2cccc(NS(=O)(=O)c3cccc4cccnc34)c2n1`, the inhibition in [2] was above 90%. In [8], the Ratio Ki was found to be 50. Moreover, the inhibitory constant (Ki) in assay [9] came out at 20.7 µM. The same compound displayed an IC50 in assay [1] of 0.83 µM.

For the compound `O=C(O)c1ccc2c(Cl)cc(I)c(O)c2n1`, in [1], half-maximal inhibition (IC50) required 0.48 µM.

As to `CS(=O)(=O)Nc1cc(Cl)c(Cl)c2ccc(C(=O)O)nc12`, the 50% inhibitory concentration (IC50) in assay [5] was 5.23 µM; in assay [6] it was 0.47 µM; in assay [7], 11.2 µM; in [1], 0.95 µM. Moreover, the results for the inhibition in assay [2], in assay [3] and in assay [4] were 91%, below 5% and below 5%, respectively.

In assay [1], `O=C(O)c1cccc(C(=O)NOCc2ccccc2)n1` came in with a 50% inhibitory concentration (IC50) of 22.7 µM. This lies in the double-digit micromolar range.

Compound `Oc1cccc2ccc(-c3ccccc3)nc12` had an IC50 in [1] above 1000 µM.

For the compound `O=C(O)c1ccc2c(I)cc(I)c(O)c2n1`, the figures for the inhibition in assay [2], in assay [3] and in assay [4] were 5%, below 5% and below 5%, respectively. This compound showed a concentration for half-maximal inhibition (IC50) in [1] of 0.3 µM.

For the compound `CS(=O)(=O)Nc1ccc(-c2cccc(N)c2)c2ccc(C(=O)O)nc12`, the inhibition in assay [2] was 95%; in [3], below 5%; in assay [4] it was below 5%. In [1], this compound had a half-maximal inhibitory concentration (IC50) of 2.1 µM.

For `O=C(O)c1ccc2c(Cl)cc(Cl)c(O)c2n1`, the IC50 in assay [5] came to 0.48 µM; in assay [6], 0.16 µM; in assay [7], 1.26 µM; in [1], 0.54 µM. Further, the inhibition was 20% in [2], below 5% in [3] and below 5% in assay [4].

Consider `CON(C)C(=O)c1ccccn1`, for which, in assay [1], the IC50 was above 2000 µM.

Turning to `CONC(=O)c1cccc(C(=O)O)n1`, the IC50 in assay [1] was 27.8 µM.

`Cc1ccc2cccc(O)c2n1` [8-HYDROXY QUINALDINE] displayed an IC50 in assay [1] of 274 µM.

In [1], `Nc1cccc(-c2cc(C(=O)O)nc3c(NS(=O)(=O)c4ccccn4)cccc23)c1` registered an IC50 of 0.25 µM.

In the case of `O=C(O)c1ccc2cccc(NS(=O)(=O)c3cccc(F)c3)c2n1`, the concentration for half-maximal inhibition (IC50) in [1] was found to be 0.68 µM.

Compound `Cc1ccc2cccc(NS(=O)(=O)c3ccccc3)c2n1` came in with an IC50 in assay [1] of 1.6 µM. This IC50 is about 2.4-fold higher than that of the compound before.

Regarding `O=C([O-])CN(CCN(CC(=O)[O-])CC(=O)O)CC(=O)O.[Na+].[Na+]`, the inhibition was 23% in [2], below 5% in assay [3] and below 5% in assay [4].

`COC(=O)c1ccc2cccc(NS(C)(=O)=O)c2n1` returned an IC50 in assay [1] of 17.6 µM. That is a double-digit micromolar value.

`O=C(O)c1ccc2cccc(NS(=O)(=O)c3cccc([N+](=O)[O-])c3)c2n1` registered a half-inhibitory concentration (IC50) in assay [1] of 0.56 µM. This IC50 is about 31-fold lower than that of the compound before.

In turn, `N#Cc1ccccc1S(=O)(=O)Nc1cccc2ccc(C(=O)O)nc12` showed an IC50 in assay [1] of 0.47 µM.

As for `O=C(O)c1ccc2ccc3c(c2n1)NS(=O)(=O)c1ccc(C(F)(F)F)cc1-3`, the inhibition is above 90% in assay [2], below 5% in [3] and below 5% in [4]. Also, the Ratio Ki in assay [8] was found to be 135. Further, the Ki in assay [9] was found to be 27.6 µM. This compound also came in with an IC50 in [1] of 0.41 µM.

Take `Oc1c(I)cc(I)c2cccnc12` [IODOQUINOL]: the IC50 in assay [1] was found to be 2.5 µM.

The compound `COC(=O)c1ccc2cccc(NS(=O)(=O)c3ccc(C(F)(F)F)cc3)c2n1` had a 50% inhibitory concentration (IC50) in assay [1] of 0.75 µM.

`C[C@H](CS)C(=O)N1CCC[C@H]1C(=O)O`: the inhibition in assay [2], in assay [3] and in [4] was below 5% each time.

As for `CS(=O)(=O)Nc1cccc2c(Cl)cc(C(=O)O)nc12`, the IC50 in assay [5] was found to be 8.11 µM; in assay [6] it was 0.47 µM; in assay [7], 21.1 µM; in [1], 1 µM. For the same compound, the inhibition in assay [2] is 90%; in assay [3], below 5%; in assay [4], below 5%.

Regarding `O=C(NOCc1ccccc1)c1ccccn1`, the IC50 in assay [1] was found to be 530 µM.

As for `O=C(O)c1ccccn1` [2-PICOLINIC ACID], the IC50 in assay [1] was 303 µM. Against the preceding compound, the IC50 is about 1.7-fold lower.

Consider `O=C(O)c1cc(-c2cccc(F)c2)c2cccc(NS(=O)(=O)c3ccccn3)c2n1`, for which the IC50 in assay [1] came to 0.37 µM.

For `O=C(O)c1ccc2cccc(NS(=O)(=O)c3ccccc3)c2n1`, the 50% inhibitory concentration (IC50) in [5] was 1.22 µM; in [6] it was 0.43 µM; in assay [7] it was 3.07 µM; in [1], 0.71 µM. Besides, the inhibition in assay [2] was above 90%; in assay [3], below 5%; in assay [4], below 5%. Besides, the Ratio Ki in [8] was determined as 6. In addition, the Ki in [9] was 2.12 µM.

On to `O=C(NO)c1cccc(C(=O)NO)n1`, for which the IC50 in assay [1] was above 1000 µM.

As to `O=C(O)c1ccc2cccc(NS(=O)(=O)C(F)(F)F)c2n1`, half-maximal inhibition in [1] (IC50) was put at 0.9 µM.

`O=C(O)c1ccc2c(Cl)c(Cl)cc(NS(=O)(=O)c3ccccn3)c2n1` displayed an IC50 in assay [1] of 0.52 µM.

With `O=C(O)c1ccc2c(Cl)ccc(NS(=O)(=O)c3ccccn3)c2n1`, the IC50 in assay [1] is 0.29 µM.

Consider `O=C(NOCc1ccccc1)c1cccc(C(=O)NOCc2ccccc2)n1`, for which the IC50 in [5] amounted to 102 µM; in [1], 7.2 µM. Also, the inhibition in assay [2], in assay [3] and in assay [4] was below 5% each time.

With `O=S(=O)(Nc1cccc2cccnc12)c1cccc(F)c1`, the 50% inhibitory concentration (IC50) in assay [1] amounted to 6.2 µM.

`CS(=O)(=O)Nc1cccc2c(-c3cccc(N)c3)cc(C(=O)O)nc12`: the IC50 in assay [1] was found to be 0.71 µM.

For `CONC(=O)c1cccc(C(=O)NOC)n1`, it took 84.3 µM to reach half-maximal inhibition in [1] (IC50). This IC50 is about 120-fold higher than that of the compound before.

For the compound `O=C(O)c1cccc(C(=O)O)n1` [DIPICOLINIC ACID], the concentration for half-maximal inhibition (IC50) in assay [5] amounted to 9.75 µM; in assay [6], 0.45 µM; in assay [7], 15.6 µM; in assay [1], 7 µM. Moreover, the inhibition in assay [2], in [3] and in [4] was below 5% throughout.

With `O=C(NOCc1ccccc1)c1ccc2cccc(O)c2n1`, the figures for the IC50 in assay [5] and in [1] were 25.2 µM and 11.2 µM, respectively.
